Experimental data from patent US11661431B2, “Thienopyrrole compounds” (Gilead Sciences, Inc., priority 2021, dated 2023).

How the values were obtained:
[1] = molecular target: TLR7 (Homo sapiens (Human), UniProt Q9NYK1); assay: TLR7 human peripheral blood mononuclear cell (PBMC) cell-based assay (GS-986 as agonist; IL-6 and IFNα readout); conditions: human PBMCs, TLR7 agonist GS-986 at 400 nM, 6 hours, antagonist potency; read-out: TLR-7 EC50
Description: Human peripheral blood mononuclear cells (PBMCs) consist of lymphocytes, monocytes and dendritic cells that express TLR7, TLR8 and TLR9. These cells respond to TLR7, TLR8 and TLR9 ligand stimulation and produce cytokines and chemokines in vitro and in vivo. Human PBMCs are therefore suitable to be used in a cell-based assay to assess the in vitro potency of a TLR 7, 8, and/or 9 antagonist.
After counting, the cell density was adjusted to 2 million cells/ml and incubated for 1 hour at 37° C., 5% CO2 for recovery. Following the recovery, the cells were plated by adding 50 μl per well (100,000 cells) to 384-well cell culture plates (Greiner) containing 250 nl of test antagonists in 100% DMSO per well, in a 10 points dose response in quadruplicates. PBMCs were incubated in the presence of test antagonists for one hour at 37° C., 5% CO2 before being stimulated with a TLR7 or TLR9agonist. […] PBMCs were incubated in the presence of the test antagonist and the TLR7 (or TLR9) agonist for an additional 6 hours at 37° C., 5% CO2. At the end of the incubation, the cell culture plates were centrifuged at 500 g for 5 min, and the cell culture supernatant was collected. The level of cytokines (IL-6 and IFNα) in the supernatant was measured by electrochemiluminescence immunoassays (Mesoscale Discovery) following manufacturer's recommended protocols.

[2] = molecular target: TLR8 (Homo sapiens (Human), UniProt Q9NR97); assay: TLR8 human peripheral blood mononuclear cell (PBMC) cell-based assay (Compound A as agonist; TNFα and IL12p40 readout); conditions: human PBMCs, TLR8 agonist Compound A at 800 nM, 6 hours, antagonist potency; read-out: TLR-8 EC50
Description: After counting, the cell density was adjusted to 2 million cells/ml and incubated for 1 hour at 37° C., 5% CO2 for recovery. Following the recovery, the cells were plated by adding 50 μl per well (100,000 cells) to 384-well cell culture plates (Greiner) containing 250 nl of test antagonists in 100% DMSO per well, in a 10 points dose response in quadruplicates. PBMCs were incubated in the presence of antagonists for one hour at 37° C., 5% CO2 before being stimulated with TLR8 agonist. […] PBMCs were incubated in the presence of antagonist and the TLR8 agonist for an additional 6 hours at 37° C., 5% CO2. At the end of the incubation, the cell culture plates were centrifuged at 500 g for 5 min, and the cell culture supernatant was collected. The level of cytokines (TNFα and IL12p40) in the supernatant was measured by electrochemiluminescence immunoassays (Mesoscale Discovery) following manufacturer's recommended protocols.

Sequence of TLR7 (Q9NYK1 27-1049): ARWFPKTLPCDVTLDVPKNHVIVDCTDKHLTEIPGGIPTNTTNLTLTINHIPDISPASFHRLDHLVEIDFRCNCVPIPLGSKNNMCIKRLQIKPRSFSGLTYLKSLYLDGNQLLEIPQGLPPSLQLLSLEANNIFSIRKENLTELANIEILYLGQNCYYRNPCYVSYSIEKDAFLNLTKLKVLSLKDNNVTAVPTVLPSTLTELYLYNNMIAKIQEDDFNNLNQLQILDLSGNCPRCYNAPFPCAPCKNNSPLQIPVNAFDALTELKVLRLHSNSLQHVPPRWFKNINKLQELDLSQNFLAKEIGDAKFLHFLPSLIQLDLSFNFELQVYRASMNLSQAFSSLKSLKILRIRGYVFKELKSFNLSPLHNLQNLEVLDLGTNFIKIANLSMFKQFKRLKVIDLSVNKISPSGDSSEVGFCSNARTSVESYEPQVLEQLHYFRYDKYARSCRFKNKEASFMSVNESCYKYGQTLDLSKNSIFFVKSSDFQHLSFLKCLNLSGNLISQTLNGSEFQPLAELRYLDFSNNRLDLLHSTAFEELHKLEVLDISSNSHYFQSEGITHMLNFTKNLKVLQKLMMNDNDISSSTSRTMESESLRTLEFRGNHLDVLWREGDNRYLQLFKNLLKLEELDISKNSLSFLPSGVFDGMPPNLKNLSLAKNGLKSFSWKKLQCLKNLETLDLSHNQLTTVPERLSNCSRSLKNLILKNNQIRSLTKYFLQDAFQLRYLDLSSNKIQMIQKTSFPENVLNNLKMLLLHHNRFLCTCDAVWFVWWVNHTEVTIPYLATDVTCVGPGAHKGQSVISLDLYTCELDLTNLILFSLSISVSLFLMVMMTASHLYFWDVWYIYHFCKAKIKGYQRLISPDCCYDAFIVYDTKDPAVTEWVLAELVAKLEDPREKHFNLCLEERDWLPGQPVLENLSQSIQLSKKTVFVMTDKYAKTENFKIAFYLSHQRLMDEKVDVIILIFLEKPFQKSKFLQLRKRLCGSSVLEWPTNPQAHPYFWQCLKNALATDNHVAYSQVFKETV
Sequence of TLR8 (Q9NR97 27-1041): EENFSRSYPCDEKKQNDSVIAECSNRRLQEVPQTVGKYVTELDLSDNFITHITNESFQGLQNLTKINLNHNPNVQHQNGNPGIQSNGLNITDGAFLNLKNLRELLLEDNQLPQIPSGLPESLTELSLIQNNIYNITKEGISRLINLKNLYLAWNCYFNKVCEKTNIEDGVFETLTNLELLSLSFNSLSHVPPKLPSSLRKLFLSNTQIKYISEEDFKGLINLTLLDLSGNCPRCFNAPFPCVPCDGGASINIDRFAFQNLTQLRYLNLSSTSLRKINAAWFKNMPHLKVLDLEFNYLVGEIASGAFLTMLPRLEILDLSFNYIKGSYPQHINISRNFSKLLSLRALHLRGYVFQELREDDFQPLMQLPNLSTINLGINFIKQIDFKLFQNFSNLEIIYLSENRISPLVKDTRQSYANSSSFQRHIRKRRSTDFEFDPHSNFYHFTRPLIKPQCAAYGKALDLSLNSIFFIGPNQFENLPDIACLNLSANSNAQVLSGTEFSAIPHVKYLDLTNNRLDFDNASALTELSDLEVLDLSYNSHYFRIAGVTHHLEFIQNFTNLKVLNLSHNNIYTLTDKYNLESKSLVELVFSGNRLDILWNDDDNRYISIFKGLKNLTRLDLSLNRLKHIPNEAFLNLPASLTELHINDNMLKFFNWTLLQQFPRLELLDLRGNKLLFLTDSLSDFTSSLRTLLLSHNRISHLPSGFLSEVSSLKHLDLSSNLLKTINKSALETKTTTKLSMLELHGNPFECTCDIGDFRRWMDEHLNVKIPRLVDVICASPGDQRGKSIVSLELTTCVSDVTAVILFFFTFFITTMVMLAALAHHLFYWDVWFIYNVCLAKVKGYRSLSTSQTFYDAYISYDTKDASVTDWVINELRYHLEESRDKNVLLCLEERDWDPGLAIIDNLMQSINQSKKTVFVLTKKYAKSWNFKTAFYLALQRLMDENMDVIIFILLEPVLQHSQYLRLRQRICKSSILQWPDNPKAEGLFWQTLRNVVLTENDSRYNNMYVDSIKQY

EC50 [1] [nM] | EC50 [2] [nM] | SMILES
3.2 | 129 | Cc1c(-c2[nH]c3sc(C4CCN(C(=O)[C@H]5CO[C@@H](C(F)(F)F)CN5)CC4)c(C)c3c2C(C)C)cn2ncnc2c1C [Example 285]
0.5 | 30.4 | Cc1c(C23CCNCC2C3(F)F)sc2[nH]c(-c3cc(C)c4ncnn4c3)c(C(C)C)c12 (centres unmarked) [Example 204]
8.47 | 79.3 | Cc1c(-c2[nH]c3sc(-c4cccc(C5CCNCC5)c4)c(C)c3c2C(C)C)cn2ncnc2c1C [Example 222]
0.97 | 0.83 | Cc1c(-c2[nH]c3sc([C@@H]4C[C@@H]5C[C@H]4CN5CC(=O)N4CC(O)C4)c(C)c3c2C(C)C)cn2ncnc2c1C [Example 265, 2-((1S,4R,5R)-5-(5-(7,8-dimethyl-[1,2,4]triazolo[1,5-a]pyridin-6-yl)-4 isopropyl-3-methyl-6H-thieno[2,3-b]pyrrol-2-yl)-2-azabicyclo[2.2.1]heptan-2-yl)-1-(3-hydroxyazetidin-1-yl)ethan-1-one]
10 | 1.22 | Cc1c(-c2[nH]c3sc(C4CC5(CCN(CCS(C)(=O)=O)C5)C4)c(C)c3c2C(C)C)cn2ncnc2c1C (single isomer, unassigned) [Example 314, 5-(7,8-dimethyl-[1,2,4]triazolo[1,5-a]pyridin-6-yl)-4-isopropyl-3-methyl-2-(6-(2-(methylsulfonyl)ethyl)-6-azaspiro[3.4]octan-2-yl)-6H-thieno[2,3-b]pyrrole]

The next lines start with the compound.

SMILES | EC50 [1] [nM] | EC50 [2] [nM]
Cc1nc2c(C)cc(-c3[nH]c4sc(C5CCN(C(=O)[C@H]6COCCN6)CC5)c(C)c4c3C(C)C)cn2n1 [Example 135] | 0.28 | 27
Cc1c(C2C[C@H]3CNC[C@H]3C2)sc2[nH]c(-c3cc(C)c4ncnn4c3)c(C(C)C)c12 (single isomer, unassigned) [Example 69] | 0.05 | 4.2
Cc1c(-c2[nH]c3sc(C4CC5(CCN(CC(N)=O)C5)C4)c(C)c3c2C(C)C)cn2ncnc2c1C (single isomer, unassigned) [Example 86, 2-(2-(5-(7,8-dimethyl-[1,2,4]triazolo[1,5-a]pyridin-6-yl)-4-isopropyl-3-methyl-6H-thieno[2,3-b]pyrrol-2-yl)-6-azaspiro[3.4]octan-6-yl)acetamide] | 2.43 | 0.98
Cc1c(-c2[nH]c3sc(C4CCC5(CC4)CNCCO5)c(C)c3c2C(C)C)cn2ncnc2c1C (centres unmarked) [Example 144, 9-(5-(7,8-dimethyl-[1,2,4]triazolo[1,5-a]pyridin-6-yl)-4-isopropyl-3-methyl-6H-thieno[2,3-b]pyrrol-2-yl)-1-oxa-4-azaspiro[5.5]undecane] | 0.25 | 2.03
Cc1c(-c2[nH]c3sc(C4CCNCC4)c(C)c3c2C(C)C)cn2ncnc2c1C [Example 73] | 0.1 | 4.16
Cc1c(-c2[nH]c3sc(C4CC5(CC(N)C5)C4)c(C)c3c2C(C)C)cn2ncnc2c1C (centres unmarked) [Example 187] | 0.2 | 1.09
Cc1c(-c2ccc3[nH]c([C@H]4N[C@@H]5CC[C@H]4C5)nc3c2)sc2[nH]c(-c3cc(C)c4ncnn4c3)c(C(C)C)c12 [Example 22] | 1.27 | 26.1
Cc1c(C2C3CN(CC(N)=O)CC32)sc2[nH]c(-c3cc(C)c4ncnn4c3)c(C(C)C)c12 (centres unmarked) [Example 202] | 2.59 | 2.97
Cc1c(C2CC3(CNC3)C2)sc2[nH]c(-c3cc(C)c4ncnn4c3)c(C(C)C)c12 [Example 58, 4-isopropyl-3-methyl-5-(8-methyl-[1,2,4]triazolo[1,5-a]pyridin-6-yl)-2-(2-azaspiro[3.3]heptan-6-yl)-6H-thieno[2,3-b]pyrrole] | 0.24 | 1.74
Cc1c(-c2[nH]c3sc([C@@H]4C[C@@H]5C[C@H]4CN5C(=O)[C@H]4C[C@@H](F)CN4)c(C)c3c2C(C)C)cn2ncnc2c1C [Example 147] | 0.23 | 16
Cc1c(-c2[nH]c3sc([C@@H]4C[C@@H]5CC[C@H]4CN5CC(N)=O)c(C)c3c2C(C)C)cn2ncnc2c1C (single isomer, unassigned) [Example 95] | 0.7 | 4.45
